Experimental data from patent EP3708171A1, “TREATMENT OF VITAMIN D DEFICIENCY WITH 25(OH) VITAMIN D IN CRITICALLY ILL PATIENTS” (Bouillon, Roger, priority 2019, dated 2020).

Tests used:
[1] = Randomized, placebo-controlled pilot study of IV 25OHD supplementation in critically ill (ICU) patients; serum vitamin D metabolites and DBP (Example 1); format: in vivo
Description: The study was performed in accordance with the 1964 Declaration of Helsinki and its later amendments. The protocol and consent forms were approved by the institutional review board of the University Hospitals Leuven (ML2462). The study was registered at www.controlled-trials.com (ISRCTN24385496). Patients with an anticipated stay in the intensive care unit (ICU) of more than 10 days were eligible for inclusion in the study. Patients younger than 18 years, those suffering from chronic bone or kidney disease, and those who were treated with glucocorticoids before ICU admission were excluded. Patients were compared with healthy controls matched for age, gender and body mass index, of whom blood was sampled during summer time.
Upon ICU admission, patients were randomly allocated to either a daily IV injection of placebo (NaCl 0.9%) or to an IV loading dose of 200 µg 25OHD, followed by an IV replacement dose of 15 µg 25OHD per day, from ICU admission onward and continued for 10 days. Patients from both groups also received the usual vitamin D supplement, which consisted of a daily intravenous cholecalciferol supplement of +/-200 IU (5 µg, as part of 10 ml of Cernevit® (Clinitec-Baxter, Brussels, Belgium). 25OHD was obtained from Solvay Pharmaceuticals (Brussels, Belgium) and dissolved in ethanol by the hospital pharmacy under laminar flow conditions in glass vials, containing 200 µg/ml per vial for the loading dose and 15 µg/ml per vial for the replacement dose. A purity control was performed on the prepared samples using HPLC. Similarly, placebo vials were also prepared by the hospital pharmacy (1 ml NaCl 0.9% per vial). All vials were blinded by the hospital pharmacy.
The effect of IV 25OHD supplementation on vitamin D status (25OHD, 1,25(OH)2D, 24,25(OH)2D) was studied. Clinical outcome parameters (organ dysfunction (sequential organ failure assessment (SOFA) score, days on mechanical ventilation, need for renal replacement therapy), prolonged (>3 days) antibiotic therapy, ICU length of stay and mortality) were registered as safety endpoints. All patients were followed up and monitored for possible adverse events beyond the intervention period of 10 days until discharge or death. Analysts and investigators were blinded for treatment allocation.
Every day at 06.00 a.m., from ICU admission until ICU discharge or death, undiluted blood samples were taken through an arterial line that had been placed for clinical purposes. Serum and plasma samples were frozen and subsequently stored at -20°C until assay. Concentrations of 25OHD, 1,25(OH)2D, and 24,25(OH)2D were measured in serum.
25OHD was measured by competitive binding assay; 1,25(OH)2D by radioimmunoassay (RIA), and DBP by radial immunodiffusion, as previously reported by Bouillon et al (J Clin Invest 1981 67 589-596). A subset of the original 25OHD measurements were subsequently validated by re-analyses using LC-MS/MS, currently considered the gold standard. To this end, 58 samples from patients (treated with 25OHD or placebo) and controls were selected at random covering the full range of 25OHD serum concentrations (3.7-70.7 ng/ml). Briefly, serum proteins were precipitated using zinc sulphate solution, spiked with d6-25OHD3 as internal standard. After mixing and centrifugation, the supernatant was transferred to the liquid chromatography autosampler. We used a ScieX 5500 QTRAP mass spectrometer connected with a Shimadzu chromatographic system. The method consisted of an online clean-up step using a Strata C8 extraction cartridge. After loading and cleaning, the analytes were eluted by back-flushing. A Kinetex F5 column was used as analytical column. Atmospheric-pressure chemical ionization (APCI) positive mode was used. Mass transitions of 383>211, 295>211 and 389>211 were used for 25OHD3, 25OHD2 and the internal standard, respectively. Within-run and between-run CVs at clinically relevant concentrations varied between 6.3-7.4% and 6.9-8.8% respectively. […]

[2] = normal subjects; cited from earlier work
[3] = Further trial of IV 25OHD with higher replacement dose in critically ill patients (Example 2); format: in vivo; settings: IV loading dose, then 25 µg 25OHD per day for 10 days
Description: The study design and materials are similar to the one described in Example 1, the difference being that the patients are administered higher bolus and daily replacement doses of 25OHD for at least two days after the bolus administration and preferably during the hospital stay of such patients .
The study is performed in accordance with the 1964 Declaration of Helsinki and its later amendments. Patients with an anticipated stay in the intensive care unit (ICU) of more than 10 days are considered eligible for inclusion in the study. […]
The effect of IV 25OHD supplementation on vitamin D status (25OHD) is studied. […] All patients are followed up and monitored for possible adverse events beyond the intervention period of 10 days until discharge or death. […]
Every day at 06.00 a.m., from ICU admission until ICU discharge or death, undiluted blood samples are taken through an arterial line that is present for clinical purposes. […] Concentrations of 25OHD are measured in serum.
StatView 5.0.1 (SAS Institute Inc., Cary, NC) and JMP13 (SAS) is used for the statistical analyses. […] Variables with a normal distribution are analyzed with Student's t-test, variables with a non-normal distribution with Mann-Whitney U, and proportions with the chi-square test. […]

[4] = cited from earlier work
[5] = daily administration of 15 µg 25(OH)D (Ingels et al. 2010)

| SMILES | 25OHD serum concentration as compared with placebo ([1]; 10-day period, IV replacement dose 15 µg 25OHD per day) | concentrations of 1,25(OH)2D ([1]; IV 200 µg loading dose, then 15 µg/day for 10 days) | increase in serum 25OHD after bolus ([1]; IV loading dose of 200 µg 25OHD) [ng/mL] | increase of 25OHD levels ([1]; daily supplement of 15 µg of 25OHD) | 25OHD serum concentrations ([1]; following the intravenous loading dose of 200 µg 25OHD, 20 ng/ml target) | increase of 25OHD levels in the subgroup receiving the active treatment ([1]; from 9.2 ng/ml baseline) [ng/mL] | catabolism of 25OHD in ICU patients versus normal subjects of the same age ([1]; human, in vivo) | Vd ([1]; human, in vivo, iv) [L] | increase of serum 25OHD per daily dose of 1 ug of 25OHD [2] [ng/mL] | safety endpoints (clinical outcome parameters) [3] | level of 1,25(OH)2D3 [4, 5] | serum levels of 25OHD [4, 5] | outcome of critically ill patients ([4]; oral, high dose, except subgroup with baseline severe vitamin D deficiency (lower hospital mortality)) |
| --- | --- | --- | --- | --- | --- | --- | --- | --- | --- | --- | --- | --- | --- |
| C=C1CC[C@H](O)C/C1=C/C=C1\CCC[C@]2(C)[C@@H]([C@H](C)CCCC(C)(C)O)CC[C@@H]12 [25OHD, 25-hydroxyvitamin D] | remained elevated throughout the 10-day period | only transiently increased | 11 | about 8 ng/ml | instantly rose but did not reach the 20 ng/ml target | 6.8 | at least 3 fold | ~18 | 1.2 | positive effects | only a transient increase | increased the serum levels of 25OHD | – |
| C=C1CC[C@H](O)C/C1=C/C=C1\CCC[C@]2(C)[C@@H]([C@H](C)CCCC(C)C)CC[C@@H]12 [vitamin D3] | – | – | – | – | – | – | – | – | – | – | – | – | did not affect outcome |
